Laboratory results: patent publication US20240165423A1, “METHODS, SYSTEMS AND DEVICES FOR MODULATING CENTRAL NERVOUS SYSTEM INFLAMMATION AND POST-OPERATIVE PAIN” (Arizona Board of Regents on Behalf of the University of …, priority 2021, published 2024)

Test system: elderly Sprague-Dawley rats with paw incision surgery
Conditions: males and females; morphine 1 or 5 mg/kg s.c. 24 h after surgery

SMILES: CN1CC[C@]23c4c5ccc(O)c4O[C@H]2[C@@H](O)C=C[C@H]3[C@H]1C5.O=S(=O)(O)O [morphine, morphine sulfate]
- paw withdrawal thresholds of morphine-injected animals compared with saline-injected counterparts: higher than that of their saline-injected counterparts at up to 1.5 hours post-injection
